Results published in patent US20150011501A1, “PARTIALLY DEPOLYMERIZED GLYCOSAMINOGLYCAN SILVER AND GOLD SALTS” (priority 2012, published 2015).

Experiments:
E. Coli = experiment: Test of antimicrobial activity (halo diameter on plate); type: cell-based; set-up: unit not given here; conditions: chondroitin sulfate products 10% w/v, hyaluronic acid products 1.4% w/v in water
Excerpt: (§1) The objective of the test was to verify the antimicrobial activity with the microorganisms E. Coli and S. Aureus. For this purpose, solutions in water of the following products were separately prepared: • Commercially available sodium chondroitin sulfate of marine origin having a molecular weight between 25,000 and 40,000 Daltons. Product described in European Pharmacopeia (01/2009:2064) (comparative example 10); • High molecular weight silver chondroitin sulfate (comparative example 8); • Partially depolymerized silver chondroitin sulfate (example 1); • High molecular weight silver hyaluronate (comparative example 9); • Partially depolymerized silver hyaluronate (example 2); • AgNO3 (comparative example 11); • Partially depolymerized gold chondroitin sulfate (example 3); • Partially depolymerized gold hyaluronate (example 4); and • Mixture of 1 g of commercially available sodium chondroitin sulfate of marine origin having a molecular weight between 25,000 and 40,000 Daltons and 0.1 g of AgNO3 (comparative example 12).
(§2) The products derived from chondroitin sulfate were dissolved at 10% (weight/volume). The products derived from hyaluronic acid were dissolved at 1.4% (weight/volume). For the rest of products water was added until complete dissolution.
(§3) Each of the products was applied, as well as a control (water), to a plate with S. Aureus and E. Coli. The products were incubated under standard conditions for S. Aureus and E. Coli. The results were expressed in areolar or halo diameter and were the following: for the comparative example 10 it was 0 in E. Coli and 0 in S. Aureus; for the comparative example 8 it was 7 in E. Coli and 8 in S. Aureus; for the example 1 it was 7 in E. Coli and 6 in S. Aureus; for the comparative example 9 it was 8 in E. Coli and 8 in S. Aureus; for the example 2 it was 7 in E. Coli and 6 in S. Aureus; for the comparative example 11 it was 8 in E. Coli and 6 in S. Aureus; for the example 3 it was 9 in E. Coli and 8 in S. Aureus; for the control it was 0 in E. Coli and 0 in S. Aureus; for the example 4 it was 4 in E. Coli and 6 in S. Aureus; and for the comparative example 12 it was 7 in E. Coli and 5 in S. Aureus.

S. Aureus = experiment: as above; type: cell-based; set-up: unit not given here; conditions: chondroitin sulfate products 10% w/v, hyaluronic acid products 1.4% w/v in water
Excerpt: as §1, §2, §3

[1] = Preliminary test of toxicology (topical): side effects by visual inspection; type: in vivo
Experimental: (§4) The aim of this test was to assess the toxicity (topical) and effectiveness in burns. The side effects that the different products could cause including irritation, inflammation and/or darkening were assessed by visual inspection and photographs. The products assessed were the following: • Commercially available sodium chondroitin sulfate of marine origin having a molecular weight between 25,000 and 40,000 Daltons. Product described in European Pharmacopeia (01/2009:2064) (comparative example 10); • Partially depolymerized silver chondroitin sulfate (example 1); • Partially depolymerized silver chondroitin sulfate dissolved/mixed in a moisturizing cream (example 1c); • Partially depolymerized silver hyaluronate (example 2); • AgNO3 (comparative example 11); and • Partially depolymerized gold chondroitin sulfate (example 3).
(§5) The products derived from chondroitin sulfate were dissolved in water at 10% (weight/volume). The products derived from hyaluronic acid were dissolved at 1.4% (weight/volume). For the silver nitrate water was added until complete dissolution. The product of example 1c was mixed with a moisturizing cream.
All the products were applied in the “upper area of the arm” (upper biceps) and in the abdomen (area of the ribs). The products of examples 1, 2 and 3 were also applied in the “lower area of the arm”. The visual inspections were carried out with the following frequency after the application: 10 minutes, 30 minutes, 60 minutes, 8 h, 3 days, 4 days, 7 days and 9 days.
The treated areas were exposed to different types of light (solar, incandescent bulb, fluorescent) for 10 minutes. Darkening was not observed in any case. The abdomen was protected from the light after 10 minutes. The “upper area of the arm” was left under light exposure up to 8 hours. The “lower area of the arm” had continuous exposure to ambient light.

[2] = Stability test (visual inspection of colour in the dark and under ambient light); type: physicochemical; conditions: precipitated product
Experimental: After this time, a visual inspection of the products was carried out and the products were protected in the dark again. After 12 hours, another visual inspection of the products was carried out. The products were then exposed to ambient light. After 5 hours, a visual inspection of the products was carried out.

[3] = Viscosity test (dissolution time, appearance, displacement time); type: physicochemical; conditions: 0.01 g in 0.5 mL water, tube inverted (180° rotation)
Excerpt: The objective of the test was to verify that the viscosity of the partially depolymerized products obtained is lower than the viscosity of the starting products (non-depolymerized). The products assessed were the following: • High molecular weight silver chondroitin sulfate (comparative example 8); • Partially depolymerized silver chondroitin sulfate (example 1); • High molecular weight silver hyaluronate (comparative example 9) and • Partially depolymerized silver hyaluronate (example 2).
The following parameters were assessed: dissolution time, appearance (visual method) and displacement time.
0.01 g of each product was dissolved separately in 0.5 mL of distilled water in test tubes of 11.5 cm of length and 1 cm of diameter. Once the products were completely dissolved, the position of the tubes was inverted to check the displacement time.

[4] = Preliminary test of effectiveness in burns; type: in vivo; conditions: for efficacy in skin surfaces with burns or wounds: overall conclusion
Experimental: as §4, §5
In the application of the product of the comparative example 11 irritation was observed both in the “upper area of the arm” and in the abdomen at 10 minutes and at 30 minutes. […] At this moment, the product of example 1 was applied to the burn of the abdomen. 2 daily applications of the product of example 1 were done to the burn during the next 3 days. […] At this moment, the product of example 2 was applied to the burn of the “upper area of the arm”. 3 daily applications of the product of example 2 were done to the burn.

[5] = Absorption test on cellulose paper; type: physicochemical
Experimental: A comparative test of the absorption of the depolymerized compounds of the invention and the non-depolymerized compounds was carried out. To do this, partially depolymerized silver chondroitin sulfate (example 1) and high molecular weight silver chondroitin sulfate (comparative example 8) were dissolved separately with water at the same concentration (10% by weight/volume). Once the products were completely dissolved it was noted that the viscosity of the product of example 1 was lower than that of the product of the comparative example 8. 10 mL of each product were applied on cellulose paper.

[6] = Acute oral toxicology test (OECD Guideline No. 420, fixed dose); type: in vivo; set-up: median lethal oral dose (LD50): unit not given here
Experimental: An acute oral toxicology test of partially depolymerized silver chondroitin sulfate (example 1) was carried out to assess the oral toxicity and identify the corresponding classification (GHS, Globally Harmonised Classification System for Chemical Substances and Mixtures). The study was conducted according to the OECD Guideline No. 420 (fixed dose).

[7] = after 5 hours of exposure to ambient light

| Molecule | areolar or halo diameter (E. Coli) | areolar or halo diameter (S. Aureus) | color (visual inspection) ([2]; after 1 hour in the dark) | color (visual inspection) [2, 7] | color (visual inspection) ([2]; after 12 hours in the dark) | displacement time [3] [s] | further results |
| --- | --- | --- | --- | --- | --- | --- | --- |
| O=[N+]([O-])[O-].[Ag+] [comparative example 11, AgNO3] | 8 | 6 | – | – | – | – | side effects by visual inspection ([1]; topical, after 8 hours): irritation, itching, burning and a halo or aureole; side effects by visual inspection ([1]; topical, after the third day): increase of the diameter of the aureole of the burn; side effects by visual inspection ([1]; topical, parts where product was applied, after 60 minutes): irritation, itching and burning; side effects by visual inspection ([1]; topical, upper area of the arm and abdomen, at 10 minutes and at 30 minutes): irritation; side effects by visual inspection ([1]; topical, upper area of the arm, after the fourth day): increase of the diameter of the aureole of the burn; side effects by visual inspection ([1]; topical, upper area of the arm, after the seventh day): diameter of the aureole of the burn increased |
| High Molecular Weight Silver Chondroitin Sulfate [comparative example 8] | 7 | 8 | white | dark red | white | 30 | – |
| High Molecular Weight Silver Hyaluronate [comparative example 9] | 8 | 8 | – | – | – | 300 | – |
| Partially Depolymerized Gold Chondroitin Sulfate [example 3] | 9 | 8 | – | – | – | – | problems of darkening, irritation, itching or inflammation ([1]; in vivo): did not have problems of darkening, irritation, itching or inflammation; side effects by visual inspection ([1]; in vivo): no relevant behavior |
| Partially Depolymerized Gold Hyaluronate [example 4] | 4 | 6 | – | – | – | – | – |
| Partially Depolymerized Silver Chondroitin Sulfate (Without Bleaching Step) [comparative example 7] | – | – | white | dark red | white | – | – |
| Partially Depolymerized Silver Chondroitin Sulfate [example 1] | 7 | 6 | white | white | white | 1 | efficacy in skin surfaces with burns or wounds [4]: produce an improvement; burn healing (visual) ([4]; silver nitrate burn of the abdomen, 2 daily applications from third day, observed after the fourth day): nearly full disappearance of the burn; viscosity relative to comparative example 8 ([5]; 10% by weight/volume in water): lower; absorption on cellulose paper relative to comparative example 8 ([5]; 10 mL of 10% w/v solution applied on cellulose paper): absorbed more rapidly; side effects by visual inspection ([1]; topical, all areas applied, all inspections from 10 minutes to 9 days): no relevant behavior; problems of darkening, irritation, itching or inflammation ([1]; topical, overall conclusion, unlike silver nitrate): did not have problems of darkening, irritation, itching or inflammation; GHS classification ([6]; Globally Harmonised Classification System): 5; median lethal oral dose (LD50) ([6]; OECD Guideline No. 420 fixed dose): > 2000 |
| Partially Depolymerized Silver Hyaluronate [example 2] | 7 | 6 | – | – | – | 1 | efficacy in skin surfaces with burns or wounds [4]: produce an improvement; burn healing (visual) ([4]; silver nitrate burn of the upper area of the arm, 3 daily applications from seventh day, observed after the ninth day): almost completely disappeared; problems of darkening, irritation, itching or inflammation ([1]; in vivo): did not have problems of darkening, irritation, itching or inflammation; side effects by visual inspection ([1]; in vivo): no relevant behavior |
| Partially Depolymerized Ssilver Chondroitin Sulfate (Bleaching Agent: Sodium Metabisulfite) [comparative example 5] | – | – | reddish | black | reddish to black | – | – |
| sodium chondroitin sulfate [comparative example 10] | 0 | 0 | – | – | – | – | – |
